Results taken from ChEMBL document CHEMBL5104135, “Potent and selective TYK2-JH1 inhibitors highly efficacious in rodent model of psoriasis” (Bioorg Med Chem Lett, 2022).
Converted amounts (≈) assume the structure as drawn. The source made the active and inactive calls. The calls are words filed in the database; no cut-off is given here.

Assays:
[1] = Half-life in dog at 3 mg/kg, iv; type: ADME, organism-based, Canis lupus familiaris; details: in vivo
[2] = Plasma protein binding in dog
[3] = Clearance in mouse at 3 mg/kg, iv; type: ADME, organism-based; details: in vivo
[4] = Oral bioavailability in mouse at 10 mg/kg; type: ADME, organism-based; details: in vivo
[5] = Volume of distribution in dog at 3 mg/kg, iv; type: ADME, organism-based, Canis lupus familiaris; details: in vivo
[6] = Half-life in rat at 3 mg/kg, iv; type: ADME, organism-based; details: in vivo
[7] = tested on: Spleen; test: Anti-inflammatory activity in imiquimod-induced mouse psoriasis model assessed as reduction in inflammation in spleen at 10 to 100 mg/kg/day; type: functional, organism-based; details: dose 10-100 mg/kg/day
[8] = target: T1, Peroxisome proliferator-activated receptor gamma (Homo sapiens) (UniProt P37231); test: Inhibition of human PPARgamma at 10 uM measured by radioligand binding assay relative to control
T1 sequence (whole entry): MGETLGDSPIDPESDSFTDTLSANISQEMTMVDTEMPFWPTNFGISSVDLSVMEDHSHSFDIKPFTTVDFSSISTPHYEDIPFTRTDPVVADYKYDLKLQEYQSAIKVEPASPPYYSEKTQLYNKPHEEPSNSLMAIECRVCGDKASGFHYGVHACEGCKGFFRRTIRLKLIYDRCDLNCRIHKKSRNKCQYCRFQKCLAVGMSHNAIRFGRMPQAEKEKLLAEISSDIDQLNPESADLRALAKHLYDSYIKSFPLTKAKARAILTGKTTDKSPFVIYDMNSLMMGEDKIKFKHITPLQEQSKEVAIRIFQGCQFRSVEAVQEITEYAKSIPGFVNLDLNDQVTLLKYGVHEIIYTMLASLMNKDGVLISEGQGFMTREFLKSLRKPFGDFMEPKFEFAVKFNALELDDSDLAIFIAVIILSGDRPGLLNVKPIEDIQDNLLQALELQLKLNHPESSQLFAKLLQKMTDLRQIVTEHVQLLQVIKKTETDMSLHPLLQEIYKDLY

[9] = Thermodynamic solubility in simulated gastric fluid; type: physicochemical; details: read-out: Therm_solubility
[10] = Clearance in dog at 3 mg/kg, iv; type: ADME, organism-based, Canis lupus familiaris; details: in vivo
[11] = Plasma protein binding in human assessed as unbound fraction
[12] = Oral bioavailability in rat at 10 mg/kg; type: ADME, organism-based; details: in vivo
[13] = target: Phosphodiesterase 4 (Homo sapiens) (UniProt P27815+Q08499+Q07343+Q08493); test: Inhibition of human PDE4 at 10 uM measured by radioligand binding assay relative to control; type: protein assay
[14] = Kinetic solubility of compound at pH 7.4; details: buffer
[15] = Half-life in mouse at 3 mg/kg, iv; type: ADME, organism-based; details: in vivo
[16] = Volume of distribution in mouse at 3 mg/kg, iv; type: ADME, organism-based; details: in vivo
[17] = Plasma protein binding in mouse assessed as unbound fraction
[18] = Plasma protein binding in rat
[19] = Clearance in rat at 3 mg/kg, iv; type: ADME, organism-based; details: in vivo
[20] = Plasma protein binding in dog assessed as unbound fraction
[21] = Volume of distribution in rat at 3 mg/kg, iv; type: ADME, organism-based; details: in vivo
[22] = Oral bioavailability in dog at 10 mg/kg; type: ADME, organism-based, Canis lupus familiaris; details: in vivo
[23] = tested on: Blood; test: Inhibition of IL-12- induced IFN-gamma production in mouse whole blood; type: functional, tissue-based
[24] = tested on: Mus musculus; test: Anti-inflammatory activity in IL-23-induced ear inflammation model of mouse assessed as inhibition of IL-17A levels at 100 mg/kg/day; type: functional
[25] = Thermodynamic solubility in fasted simulated intestinal fluid; type: physicochemical; details: read-out: Therm_solubility
[26] = tested on: Mus musculus; test: Anti-inflammatory activity in IL-23-induced ear inflammation model of mouse assessed as inhibition of ear swelling at 100 mg/kg/day; type: functional
[27] = tested on: Blood; test: Inhibition of IL-12- induced IFN-gamma production in human whole blood; type: functional, tissue-based
[28] = Plasma protein binding in rat assessed as unbound fraction
[29] = target: Tyrosine-protein kinase Lck (Homo sapiens) (UniProt P06239); test: Inhibition of human LCK at 10 uM measured by radioligand binding assay relative to control
[30] = tested on: Spleen; test: Anti-inflammatory activity in imiquimod-induced mouse psoriasis model assessed as reduction in spleen weight at 10 to 100 mg/kg/day; type: functional, organism-based; details: dose 10-100 mg/kg/day
[31] = tested on: Mus musculus; test: Anti-inflammatory activity in imiquimod-induced mouse psoriasis model assessed as reduction in psoriasis score at 10 to 100 mg/kg/day; type: functional, organism-based; details: dose 10-100 mg/kg/day
[32] = target: Protein kinase C (PKC) (Rattus norvegicus) (UniProt P05696+P68403+P09216+P63319+P09215+Q64617+Q9WTQ0+P09217); test: Inhibition of rat PKC at 10 uM measured by radioligand binding assay relative to control; type: protein assay
[33] = target: T2, Alpha-2B adrenergic receptor (Homo sapiens) (UniProt P18089); test: Inhibition of human adrenergic alpha2B at 10 uM measured by radioligand binding assay relative to control
T2 sequence (whole entry): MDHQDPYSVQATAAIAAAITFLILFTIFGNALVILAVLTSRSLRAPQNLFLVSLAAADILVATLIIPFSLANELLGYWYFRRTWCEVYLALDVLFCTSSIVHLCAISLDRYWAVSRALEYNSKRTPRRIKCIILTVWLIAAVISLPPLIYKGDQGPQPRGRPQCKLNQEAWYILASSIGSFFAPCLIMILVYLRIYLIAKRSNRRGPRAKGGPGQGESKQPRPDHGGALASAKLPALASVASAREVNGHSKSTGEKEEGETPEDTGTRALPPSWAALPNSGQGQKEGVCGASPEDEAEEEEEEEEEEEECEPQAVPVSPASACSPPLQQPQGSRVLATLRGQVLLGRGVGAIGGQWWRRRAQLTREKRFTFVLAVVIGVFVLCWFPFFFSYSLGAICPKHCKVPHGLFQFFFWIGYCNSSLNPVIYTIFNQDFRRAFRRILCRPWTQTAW

Chain of Tyrosine-protein kinase Lck (Homo sapiens) (P06239 2-509 limits assumed): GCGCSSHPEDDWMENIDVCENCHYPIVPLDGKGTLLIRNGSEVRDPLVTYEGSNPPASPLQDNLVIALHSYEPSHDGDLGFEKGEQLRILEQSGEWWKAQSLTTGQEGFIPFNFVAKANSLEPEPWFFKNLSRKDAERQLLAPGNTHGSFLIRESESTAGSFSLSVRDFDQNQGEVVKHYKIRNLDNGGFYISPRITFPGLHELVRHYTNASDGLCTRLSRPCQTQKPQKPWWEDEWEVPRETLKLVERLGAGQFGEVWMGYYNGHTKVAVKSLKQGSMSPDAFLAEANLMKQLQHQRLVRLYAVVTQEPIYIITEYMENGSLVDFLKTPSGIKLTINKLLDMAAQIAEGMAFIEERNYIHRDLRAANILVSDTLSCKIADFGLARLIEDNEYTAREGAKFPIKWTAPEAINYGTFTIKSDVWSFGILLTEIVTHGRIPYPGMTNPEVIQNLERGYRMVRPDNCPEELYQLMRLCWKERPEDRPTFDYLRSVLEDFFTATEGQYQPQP

O=C1NCc2nc(-c3c(F)cccc3F)cc(Nc3ccc(C(=O)N4CCCC4)cc3)c21
half-life [1]: 6.5 h | fraction unbound [2]: 0.13 | clearance [3]: 28 mL/min/kg | bioavailability [4]: > 90% | Vd [5]: 2.5 L/kg | half-life [6]: 1.6 h | Activity [7]: Active | inhibition [8]: 68% | solubility thermodynamic [9]: 2300 µM (≈ 999 µg/mL) | clearance [10]: 5.2 mL/min/kg | fraction unbound [11]: 0.099 | bioavailability [12]: 32% | inhibition [13]: 59% | solubility kinetic [14]: 270 µM (≈ 117 µg/mL) | half-life [15]: 1.8 h | Vd [16]: 1.2 L/kg | fraction unbound [17]: 0.061 | fraction unbound [18]: 0.13 | clearance [19]: 27 mL/min/kg | fraction unbound [20]: 0.13 | Vd [21]: 1.9 L/kg | bioavailability [22]: 63% | fIC50 [23]: 0.36 µM | IC50 ([23]; Mus musculus, Blood): 5.9 µM | inhibition in vivo at 100 mg/kg/day [24]: 96% | solubility thermodynamic [25]: 240 µM (≈ 104 µg/mL) | inhibition in vivo at 100 mg/kg/day [26]: 74% | fIC50 [27]: 0.18 µM | IC50 ([27]; Homo sapiens, Blood): 1.8 µM | fraction unbound [28]: 0.1 | inhibition [29]: 61% | Activity [30]: Active | Activity [31]: Active | inhibition [32]: 66% | inhibition [33]: 56%
